What was measured:
Endothelial lipase (EL) = Endothelial lipase (EL) (Homo sapiens (Human), UniProt Q9Y5X9); test: EL assay: endothelial lipase activity with fluorescent substrate A10070 in DMPG vesicles; assay type: biochemical
In short: (§1)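 EL from conditioned medium of HT-1080 cells engineered to overexpress endogenous EL; HL partially purified from conditioned medium of HL-overexpressing COS cells. Enzyme preincubated with compound 30 min at 37° C in 50 mM HEPES pH 8.0, 50 mM NaCl, 1 mM CaCl2; DMPG vesicles carrying FRET substrate (0.11 mole fraction) then added.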

hepatic lipase (HL) = hepatic lipase (HL) (Homo sapiens (Human), UniProt P11150); test: HL assay: hepatic lipase activity with fluorescent substrate A10070 in DMPG vesicles; assay type: biochemical
Chain of hepatic lipase (HL) (P11150 23-499, species assumed): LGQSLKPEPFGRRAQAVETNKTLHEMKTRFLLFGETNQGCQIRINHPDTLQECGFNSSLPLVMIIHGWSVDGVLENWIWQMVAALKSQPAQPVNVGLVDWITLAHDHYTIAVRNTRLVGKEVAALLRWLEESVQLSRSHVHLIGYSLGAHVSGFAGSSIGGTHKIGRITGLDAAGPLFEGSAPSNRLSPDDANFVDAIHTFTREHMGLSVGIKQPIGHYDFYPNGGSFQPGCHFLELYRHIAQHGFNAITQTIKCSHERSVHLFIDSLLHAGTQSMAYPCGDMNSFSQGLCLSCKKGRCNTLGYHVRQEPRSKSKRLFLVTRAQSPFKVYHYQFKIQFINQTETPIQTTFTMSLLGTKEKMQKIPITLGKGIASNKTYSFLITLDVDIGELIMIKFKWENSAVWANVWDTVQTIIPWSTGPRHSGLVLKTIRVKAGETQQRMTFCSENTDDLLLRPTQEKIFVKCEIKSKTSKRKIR
In short: as §1

Chain of Endothelial lipase (EL) (Q9Y5X9 21-500): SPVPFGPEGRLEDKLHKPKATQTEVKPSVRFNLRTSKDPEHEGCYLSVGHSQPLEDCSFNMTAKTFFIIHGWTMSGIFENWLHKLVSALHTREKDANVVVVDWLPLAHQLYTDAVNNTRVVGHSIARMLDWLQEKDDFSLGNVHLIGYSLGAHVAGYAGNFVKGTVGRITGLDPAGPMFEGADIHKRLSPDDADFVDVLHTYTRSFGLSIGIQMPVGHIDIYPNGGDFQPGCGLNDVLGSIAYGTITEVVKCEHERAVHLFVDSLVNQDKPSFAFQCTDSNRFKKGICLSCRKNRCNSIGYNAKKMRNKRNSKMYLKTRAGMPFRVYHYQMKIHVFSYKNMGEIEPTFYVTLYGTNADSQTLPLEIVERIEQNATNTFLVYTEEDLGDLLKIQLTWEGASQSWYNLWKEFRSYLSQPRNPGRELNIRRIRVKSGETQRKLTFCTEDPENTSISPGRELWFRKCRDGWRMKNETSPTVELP

| SMILES | IC50 (Endothelial lipase (EL)) [µM] | IC50 (hepatic lipase (HL)) [µM] |
| --- | --- | --- |
| NS(=O)(=O)CCNC(=O)C(c1nc2ccc(-c3cccc(C(=O)N4CC[C@@H](O)C4)c3)cc2s1)S(=O)(=O)CCC(F)(F)F (stereo partly drawn) [Example B342, 2-(6-{3-[(3R)-3-hydroxy-pyrrolidine-1-carbon-yl]phenyl}-1,3-benzothiazol-2-yl)-N-(2-sulfamoyl-ethyl)-2-(3,3,3-trifluoro-propanesulfonyl)acetamide] | 0.0095 | 0.154 |
| NS(=O)(=O)CCNC(=O)C(c1nc2ccc(-c3cccc(C(=O)N4CCC(F)(F)CC4)c3)cc2s1)S(=O)(=O)CCC(F)(F)F (centres unmarked) [Example B343, 2-{6-[3-(4,4-difluoro-piperidine-1-carbon-yl)phenyl]-1,3-benzothiazol-2-yl}-N-(2-sulfamoyl-ethyl)-2-(3,3,3-trifluoro-propanesulfonyl)acetamide] | 0.0135 | 0.0381 |
| NS(=O)(=O)CCNC(=O)C(c1nc2ccc(-c3cccc(C(=O)N4CC[C@H](O)C4)c3)cc2s1)S(=O)(=O)CCC(F)(F)F (some centres unmarked) [Example B344] | 0.0131 | 0.0222 |
| CC(C)(O)CNC(=O)c1cccc(-c2ccc3nc(C(C(=O)NCCS(N)(=O)=O)S(=O)(=O)CCC(F)(F)F)sc3c2)c1 (centres unmarked) [Example B345, N-(2-hydroxy-2-methyl-propyl)-3-(2-{[(2-sulfamoylethyl)carba-moyl](3,3,3-tnfluoropro-panesulfonyl)methyl}-1,3-benzothiazol-6-yl)benzamide] | 0.001 | 0.213 |
| Cc1cc2nc(C(C(=O)NCCS(N)(=O)=O)S(=O)(=O)Cc3ccccc3)sc2cc1-c1ccc(C(=O)N2CCOCC2)cc1 (centres unmarked) [Example B346, 2-{5-methyl-6-[4-(morpholine-4-carbon-yl)phenyl]-1,3-benzothiazol-2-yl}-2-phenylmethane-sulfonyl-N-(2-sulfamoylethyl)acetamide] | 0.0053 | 0.4 |
| Cc1cc2nc(C(C(=O)NCCS(N)(=O)=O)S(=O)(=O)Cc3ccccc3)sc2cc1-c1ccc(C(=O)N2CC(C)(O)C2)cc1 (centres unmarked) [Example B347, 2-{6-[4-(3-hydroxy-3-methylazetidine-1-carbonyl)phenyl]-5-methyl-1,3-benzothiazol-2-yl}-2-phenylmethane-sulfonyl-N-(2-sulfamoylethyl)acetamide] | 0.0034 | 0.58 |
| Cc1cc2nc(C(C(=O)NCCS(N)(=O)=O)S(=O)(=O)Cc3ccccc3)sc2cc1-c1ccc(C(=O)N2CCCCC2)cc1 (centres unmarked) [Example B348, 2-{5-methyl-6-[4-(piperidine-1-carbonyl)phen-yl]-1,3-benzothiazol-2-yl}-2-phenylmethane-sulfonyl-N-(2-sulfamoylethyl)acetamide] | 0.001 | 0.0371 |
| Cc1cc2nc(C(C(=O)NCCS(N)(=O)=O)S(C)(=O)=O)sc2cc1-c1ccc(C(=O)N2CC(C)(O)C2)cc1 (centres unmarked) [Example B349, 2-{6-[4-(3-hydroxy-3-methylazetidine-1-carbonyl)phenyl]-5-methyl-1,3-benzothiazol-2-yl}-2-methanesulfonyl-N-(2-sulfamoylethyl)a-cetamide] | 0.0023 | 0.347 |
| Cc1cc2nc(C(C(=O)NCCS(N)(=O)=O)S(C)(=O)=O)sc2cc1-c1ccc(C(=O)N2CCOCC2)cc1 (centres unmarked) [Example B350, 2-methanesulfonyl-2-{5-methyl-6-[4-(morpholine-4-carbonyl)phenyl]-1,3-benzothiazol-2-yl}-N-(2-sulfamoylethyl)acetamide] | 0.0032 | 0.0905 |
| NS(=O)(=O)CCNC(=O)C(c1nc2ccc(-c3ccc(C(=O)N4CCCCC4)cc3)cc2s1)S(=O)(=O)Cc1ccccc1 (centres unmarked) [Example B351, 2-phenylmethanesulfonyl-2-{6-[4-(piperidine-1-carbonyl)phenyl]-1,3-benzothiazol-2-yl}-N-(2-sulfamoylethyl)acetamide] | 0.0062 | 0.0149 |
| CS(=O)(=O)C(C(=O)NCCS(N)(=O)=O)c1nc2cc(-c3ccccc3F)ccc2s1 (centres unmarked) [Example B352, 2-[5-(2-fluorophenyl)-1,3-benzothiazol-2-yl]-2-methanesulfonyl-N-(2-sulfamoylethyl)acetamide] | 0.0008 | 0.0137 |
| CC1(O)CN(C(=O)c2ccc(-c3ccc4nc(C(C(=O)NCCS(N)(=O)=O)S(=O)(=O)Cc5ccc(F)cc5)sc4c3)cc2)C1 (centres unmarked) [Example B353, 2-[(4-fluorophenyl)meth-anesulfonyl]-2-{6-[4-(3-hydroxy-3-methylazetidine-1-carbonyl)phcnyl]-1,3-benzothiazol-2-yl}-N-(2-sulfamoylethyl)acetamide] | 0.002 | 0.0185 |
| CO[C@@H]1CCN(C(=O)c2ccc(-c3ccc4nc(C(C(=O)NCCS(N)(=O)=O)S(=O)(=O)Cc5ccc(OC(F)(F)F)cc5)sc4c3)cc2)C1 (stereo partly drawn) [Example B354, 2-(6-{4-[(3R)-3-methoxy-pyrrolidine-1-carbonyl]phen-yl}-1,3-benzothiazol-2-yl)-N-(2-sulfamoyl-ethyl)-2-{[4-(trifluoro-methoxy)phenyl]methane-sulfonyl}acetamide] | 0.0038 | 0.553 |
| NS(=O)(=O)CCNC(=O)C(c1nc2ccc(-c3ccc(C(=O)N4CC(F)C4)cc3)cc2s1)S(=O)(=O)Cc1ccc(OC(F)(F)F)cc1 (centres unmarked) [Example B355, 2-{6-[4-(3-fluoroazetidine-1-carbonyl)phenyl]-1,3-benzothiazol-2-yl}-N-(2-sulfamoylethyl)-2-{[4-(trifluoromethoxy)phen-yl]methanesulfonyl}a-cetamide] | 0.0066 | 0.235 |
| CO[C@H]1CCN(C(=O)c2ccc(-c3ccc4nc(C(C(=O)NCCS(N)(=O)=O)S(=O)(=O)Cc5ccc(OC(F)(F)F)cc5)sc4c3)cc2)C1 (stereo partly drawn) [Example B356, 2-(6-{4-[(3S)-3-methoxy-pyrrolidine-1-carbonyl]phen-yl}-1,3-benzothiazol-2-yl)-N-(2-sulfamoyl-ethyl)-2-{[4-(trifluoro-methoxy)phenyl]methane-sulfonyl}acetamide] | 0.0027 | 0.0267 |
| NS(=O)(=O)CCNC(=O)C(c1nc2ccc(-c3ccc(C(=O)N4CC(F)(F)C4)cc3)cc2s1)S(=O)(=O)Cc1ccc(C(F)(F)F)cc1 (centres unmarked) [Example B357, 2-{6-[4-(3,3-difluoro-azetidine-1-carbonyl)phen-yl]-1,3-benzothiazol-2-yl}-N-(2-sulfamoyl-ethyl)-2-{[4-(trifluoromethyl)phen-yl]methanesulfonyl}a-cetamide] | 0.015 | 0.0932 |
| NS(=O)(=O)CCNC(=O)C(c1nc2ccc(-c3ccc4c(c3)CNC4=O)cc2s1)S(=O)(=O)Cc1ccc(C(F)(F)F)cc1 (centres unmarked) [Example B358, 2-[6-(1-oxo-2,3-dihydro-1H-isoindol-5-yl)-1,3-benzothiazol-2-yl]-N-(2-sulfamoylethyl)-2-{[4-(trifluoromethyl)phen-yl]methanesulfonyl}a-cetamide] | 0.0037 | 0.0676 |
| NS(=O)(=O)CCNC(=O)C(c1nc2ccc(-c3ccc(C(=O)N4CC(F)(F)C4)cc3)cc2s1)S(=O)(=O)Cc1cccc(C(F)(F)F)c1 (centres unmarked) [Example B359, 2-{6-[4-(3,3-difluoro-azetidine-1-carbonyl)phen-yl]-1,3-benzothiazol-2-yl}-N-(2-sulfamoyl-ethyl)-2-{[3-(trifluoromethyl)phen-yl]methanesulfonyl}a-cetamide] | 0.0047 | 0.047 |
| CC1(O)CN(C(=O)c2ccc(-c3ccc4nc(C(C(=O)NCCS(N)(=O)=O)S(=O)(=O)Cc5cccc(C(F)(F)F)c5)sc4c3)cc2)C1 (centres unmarked) [Example B360, 2-{6-[4-(3-hydroxy-3-methylazetidine-1-carbonyl)phenyl]-1,3-benzothiazol-2-yl}-N-(2-sulfamoylethyl)-2-{[3-(trifluoromethyl)phen-yl]methanesulfonyl}a-cetamide] | 0.0062 | 0.471 |
| Cn1cc(-c2ccc3nc(C(C(=O)NCCS(N)(=O)=O)S(=O)(=O)Cc4ccc(C(F)(F)F)cc4)sc3c2)ccc1=O (centres unmarked) [Example B361] | 0.121 | 1.23 |
| CC1(O)CN(C(=O)c2ccc(-c3ccc4nc(C(C(N)=O)S(=O)(=O)Cc5ccc(OC(F)(F)F)cc5)sc4c3)cc2)C1 (centres unmarked) [Example B362, 2-{6-[4-(3-hydroxy-3-methylazetidine-1-carbonyl)phenyl]-1,3-benzothiazol-2-yl}-2-{[4-(trifluoromethoxy)phen-yl]methanesulfonyl}a-cetamide] | 0.158 | 0.0303 |
| CC(C)(O)Cn1ccc(-c2ccc3nc(C(C(=O)NCCS(N)(=O)=O)S(=O)(=O)Cc4ccc(F)cc4)sc3c2)cc1=O (centres unmarked) [Example B363, 2-[(4-fluorophenyl)meth-anesulfonyl]-2-{6-[1-(2-hydroxy-2-methylpropyl)-2-oxo-1,2-dihydropyridin-4-yl]-1,3-benzothiazol-2-yl}-N-(2-sulfamoylethyl)acetamide] | 0.0116 | 10 |
| Cn1ccc(-c2ccc3nc(C(C(=O)NCCS(N)(=O)=O)S(=O)(=O)Cc4ccc(C(F)(F)F)cc4)sc3c2)cc1=O (centres unmarked) [Example B364, 2-[6-(1-methyl-2-oxo-1,2-dihydropyridin-4-yl)-1,3-benzothiazol-2-yl]-N-(2-sulfamoylethyl)-2-{[4-(trifluoromethyl)phen-yl]methanesulfonyl}a-cetamide] | 0.0283 | 10 |
| NS(=O)(=O)CCNC(=O)C(c1nc2ccc(-c3ccccc3F)cc2s1)S(=O)(=O)Cc1ccc(OC(F)(F)F)cc1 (centres unmarked) [Example B365, 2-[6-(2-fluorophenyl)-1,3-benzothiazol-2-yl]-N-(2-sulfamoylethyl)-2-{[4-(trifluoromethoxy)phen-yl]methanesulfonyl}a-cetamide] | 0.0172 | 0.0021 |
| Cn1cc(-c2ccc3nc(C(C(=O)NCCS(N)(=O)=O)S(=O)(=O)Cc4cccc(C(F)(F)F)c4)sc3c2)ccc1=O (centres unmarked) [Example B366, 2-[6-(1-methyl-6-oxo-1,6-dihydropyridin-3-yl)-1,3-benzothiazol-2-yl]-N-(2-sulfamoylethyl)-2-{[3-(trifluoromethyl)phen-yl]methanesulfonyl}a-cetamide] | 0.0044 | 0.219 |

— US8987314B2, “Amide, urea or sulfone amide linked benzothiazole inhibitors of endothelial lipase” (Bristol-Myers Squibb Company, priority 2012, dated 2015)
